Reference: US20260328779A1, “METHODS AND COMPOSITIONS FOR THE DIAGNOSIS AND TREATMENT OF IGA NEPHROPATHY” (Beth Israel Deaconess Medical Center, Inc., priority 2022, published 2026)

What was measured:
anti-Tn IgM = test: Inhibition of anti-Tn antibody binding to Tn glycopeptide array; set-up: species or system human; settings: glycomimetic 20 mM, 30 min at RT, anti-Tn antibodies C3
Protocol: The Tn glycopeptide microarray was prepared as previously described^77. Briefly, the glycopeptides printed on the microarray is as listed (FIG. 2). Purified anti-Tn antibodies (diluted to […] for IgM, and […] for IgG and IgA detection) in TSM binding buffer (20 mM Tris-HCl, pH 7.4, 150 mM NaCl, 2 mM CaCl2), 2 mM MgCl2, with 1% BSA and 0.05% Tween-20) were added to the respective array slides for 1 h at RT. Alexa Fluor #488-labeled goat anti-human IgM or goat anti-human IgG, or FITC-labeled goat anti-human IgA antibody at 1:400 dilution in TSM binding buffer was used for detection of IgM, IgG, and IgA within purified anti-Tn antibodies. Slides were analyzed on a Genepix^# 4300A microarray scanner (Molecular Devices). Images were analyzed with quantitation software (GenePix® Pro Microarray Analysis Software Ver. 7, Molecular Devices). For inhibition assay, a purified Tn(+)IgA1 produced from CosmcKO Dakiki cells was utilized (See Generation of CosmcKO Dakiki cells using CRISPR-Cas9 system for generating the antibody) to inhibit anti-Tn antibodies binding to microarray and Tn(−)IgA1 produced from Dakiki cells as a […]. Purified anti-Tn antibodies (Cl, 10 mg/ml) in TSM binding buffer was preincubated with 1 mg of purified Tn(+)IgA1, or Tn(−)IgA1 for 30 min at RT. […] Heat map and correlation map of binding preferences were analyzed using GLAD (Glycan Array Dashboard).

anti-Tn CICs = test: ELISA based glycomimetic inhibition assay (anti-Tn CICs binding to IgA1 glycopeptide); set-up: species or system human; settings: ID18 with ID19 as baseline, serial dilution (1/3) starting at 10 mM
Protocol: IgA1 glycopeptides (ID18, or ID19 as listed in FIG. 2, 0.01 mg/well) were immobilized using immobilization buffer (NaHCO3/Na2CO3, pH 9.6) in a 96-well plate (Thermo Fisher Scientific, PolySorp) overnight at 4° C. The plate was washed 3× with TSM containing 0.05% tween-20 (TSMT) and added 5% (w/v) BSA in TSMT for 1 h at RT. The plate was incubated with 1 mg/ml of purified anti-Tn CICs from IgAN serum (P3, and pooled with P1-P10; Pmix) or healthy donors (C3, and pooled C1-C10; Cmix) in TSMT containing 0.5% BSA for 1 h at RT. The plate was washed 3× with TSMT and incubated for 1 h with HRP-conjugated goat anti-human IgM at 1:1,000 dilution in TSMT containing 0.5% BSA at RT. The plate was washed 3× with TSMT and developed using TMB substrate solution (Cat #ab171523, Abcam) for 30 min, and the reaction was stopped with 1N HCl. Absorbance (450 nm) was read on an ImageXpress #Pico (Molecular Devices). The half-maximal inhibitory concentration (IC50) was calculated with GraphPad Prism 6.0 (GraphPad Software, Inc.) after subtraction from ID19 as a baseline. For inhibition assay, purified anti-Tn CICs were preincubated with a serial dilution (1/3) of α-methylGalNAc or DiαGalNAc (starting at 10 mM) for 30 min at RT.

[1] = test system: primary human renal mesangial cells; test: Inhibition of anti-Tn CICs-stimulated mesangial cell proliferation (Ki-67); type: cell-based; settings: anti-Tn CICs purified from IgAN patients pretreated with 100 mM compound, 30 min at RT
Protocol: […] of serum was mixed with […] of Tn(+)matrix beads or mock beads overnight at 4° C. (10 rpm). Supernatant was collected after pelleting the beads at 500×g for 30 sec at 4° C. After two rounds of such sequential anti-Tn CICs immunodepletion (serum-ID) and its control (serum-Mock), collected serum was filtered by syringe filter unit (Cat #SLHP033RS, Millipore Sigma) before use. Cells were cultured at ~90% confluency in 96-well plate, and starved in Mesangial cell media (Cat #4201) with 0.5% FBS (Cat #0010) and 0.05× mesangial cell growth supplement (MsCGS, Cat #4252) from ScienCell for 24 h at 37° C. prior to stimulation. Cells were stimulated with 5% serum-Mock, 5% serum-ID with or without exogenous anti-Tn CICs (50 ng/[…]/well, total) for 24 h at 37° C. incubator. Cells were fixed with 4% PFA with 0.05% Triton-X-100 in PBS for 20 min at 4° C. Fixed cells were blocked with 5% (vol/vol) goat serum in PBS for 1 h at 4° C., and incubated with anti-Ki-67 antibody (SP6, rabbit IgG, Cat #CRM325B, Biocare Medical, diluted to 1:50) in PBS for 1 h at 4° C. Cells were washed 3× with chilled PBS, and incubated with Alexa Fluor #488-goat anti-rabbit IgG (Cat #A27034, Thermo Fisher Scientific) at 1:400 in PBS for 1 h at 4° C. in the dark. Cells were washed 3× with chilled PBS, and stained with DAPI (diluted to 0.1 mM) in PBS for 10 min at RT, and analyzed using a microscope (AMG EVOS FL digital inverted microscope, Fisher Scientific, ×400 magnification). For inhibition assay, anti-Tn CICs was preincubated with 100 mM α-methylGalNAc, or α-methylGlcNAc in PBS for 30 min at RT. Serum from three healthy controls (C3, C6, and pooled C1-C10; Cmix) and three IgAN (P5, P10, and pooled P1-P10; Pmix) were used in this assay. […] of serum with IgAN (P1-P20) or healthy control (C1-C20) was analyzed on SDS-PAGE gel, and stained with Coomassie.

SMILES | inhibition of anti-Tn antibody (IgM) binding to Tn glycopeptide array (anti-Tn IgM) | inhibition of anti-Tn CICs binding to IgA1 glycopeptide (anti-Tn CICs) | inhibition of anti-Tn CICs binding to IgA1 glycopeptide (anti-Tn CICs; listed as Di αGalNAc) | inhibition of proliferative activity of anti-Tn CICs from IgAN patients toward mesangial cells [1]
CC(=O)N[C@H]1[C@@H](OCCSCCO[C@H]2O[C@H](CO)[C@H](O)[C@H](O)[C@H]2NC(C)=O)O[C@H](CO)[C@H](O)[C@@H]1O [DiαGalNAc, α-D-2-Ethylthio 2-acetamido-galactopyranosyl α-D-2-Ethylthio 2-acetamido-galactopyranoside] | higher inhibition compared to α-methylGalNAc | A higher inhibition of anti-Tn CICs binding | specifically inhibits the binding of anti-Tn CICs to IgA1 glycopeptide | 
CO[C@H]1O[C@H](CO)[C@@H](O)[C@H](O)[C@H]1NC(C)=O [α-methylGlcNAc, reference compound] |  |  |  | did not inhibit the mesangial cell proliferation
